In PubChem BioAssay (NCI):
“And” between values parts separate entries of the source, which are not always exact repeats. Equal entries are not always repeated.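 Dose response: 5 concentrations. Exposure: 48 h. Format: 96-well plates. Endpoint: linear interpolation; highest concentration if not reached. Here, GI50 denotes the concentration required for 50% inhibition of growth. TGI: total growth inhibition.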

Experiments:
Experiment in all cases: NCI tumour cell line growth inhibition, 48 h
[1] = test system: SF-268 CNS
[2] = test system: MCF7 breast
[3] = test system: CAKI-1 renal
[4] = test system: NCI/ADR-RES ovarian
[5] = test system: MDA-MB-435
[6] = test system: UACC-62 melanoma
[7] = test system: HS 578T breast
[8] = test system: NCI-H460 lung
[9] = test system: SF-539 CNS
[10] = test system: RXF 393 renal

CC(C)(C)NCc1cc(C(C)(C)C)cc(-c2ccc(Cl)cc2)c1O
TGI [1]: 30.8 µM | TGI [2]: 32.7 µM | TGI [3]: 25.6 µM | TGI [4]: 32.4 µM | TGI [5]: 25.2 µM | TGI [6]: 32 µM | TGI [7]: 29 µM | TGI [8]: 34.8 µM | TGI [9]: 27.9 µM

Cn1c(=O)c(Oc2ccccc2F)cc2cnc(NC3CCOCC3)nc21
GI50 [10]: > 25 µM | TGI [10]: > 25 µM | GI50 [1]: > 25 µM | TGI [1]: > 25 µM | GI50 [2]: > 25000 nM | TGI [2]: > 25 µM | GI50 [3]: > 25000 nM | TGI [3]: > 25 µM | GI50 [4]: > 25 µM | TGI [4]: > 25 µM | GI50 [5]: > 25 µM | TGI [5]: > 25 µM | GI50 [6]: > 25000 nM | TGI [6]: > 25 µM | GI50 [7]: > 25 µM | TGI [7]: > 25 µM | GI50 [8]: > 25 µM | TGI [8]: > 25 µM | GI50 [9]: > 25 µM | TGI [9]: > 25 µM

Cc1ccc(S(=O)(=O)NC(=O)NC23CC4CC(CC(F)(C4)C2)C3)cc1
TGI [10]: > 100 µM | TGI [6]: > 100 µM | TGI [8]: > 100 µM | TGI [9]: > 100 µM

CO/C1=C\C(C)=C\C(C)C(O)C(C)C/C(C)=C/C=C/C(OC)C(C(C)C(O)C(C)C2(O)CC(O)C(C)C(C(C)C)O2)OC1=O (stereo not given)
GI50 [10]: 11.1 µM | TGI [1]: 19.5 µM | GI50 [3]: 21 nM | TGI [3]: 9.89 µM | TGI [5]: 0.0042 µM | TGI [6]: 0.00785 µM and 0.0254 µM | TGI [9]: 0.0827 µM

CC[C@@]1(O)C(=O)NCc2c1cc1n(c2=O)Cc2cc3c(N)cccc3nc2-1
GI50 [10]: 5.35 µM | TGI [10]: 24.9 µM | GI50 [1]: 0.558 µM | GI50 [2]: 787 nM | TGI [2]: > 100 µM | GI50 [3]: 981 nM | TGI [3]: 5.51 µM | GI50 [4]: 2.29 µM | TGI [4]: 38.5 µM | GI50 [5]: 4.8 µM | TGI [5]: 18.5 µM | GI50 [6]: 1150 nM | TGI [6]: 20.2 µM | GI50 [7]: > 17.4 µM | TGI [7]: > 64.3 µM | GI50 [8]: 0.305 µM | TGI [8]: 27.8 µM | GI50 [9]: 1.04 µM | TGI [9]: 10.9 µM

COc1cccc(C(=O)N2CCc3ccccc32)c1OC
TGI [10]: > 100 µM | TGI [3]: > 100 µM | TGI [6]: > 100 µM | TGI [8]: > 100 µM | TGI [9]: > 100 µM

CCOC(=O)C1(Cc2ccccc2)CCCCCN1 (stereo not given)
TGI [10]: > 100 µM | TGI [1]: > 100 µM | TGI [3]: > 100 µM | TGI [6]: > 100 µM | TGI [8]: > 100 µM

Clc1ccc2[nH]cc(-c3nc(-c4c[nH]c5ncccc45)cs3)c2c1
GI50 [10]: 2.69 µM | TGI [10]: 11.4 µM | GI50 [1]: 5.06 µM | TGI [1]: 32.4 µM | GI50 [2]: 2460 nM | TGI [2]: 16.5 µM | GI50 [3]: 1730 nM | TGI [3]: 11.2 µM | GI50 [4]: 3.09 µM | TGI [4]: 16.9 µM | GI50 [5]: 3.44 µM | TGI [5]: 14.8 µM | GI50 [6]: 4000 nM | TGI [6]: 16.5 µM | GI50 [7]: 7.59 µM | TGI [7]: > 100 µM | GI50 [8]: 2.56 µM | TGI [8]: 9.15 µM | GI50 [9]: 4.97 µM | TGI [9]: 21.2 µM

COc1cc(/C=C\[N+](=O)[O-])ccc1OCc1ccccc1
GI50 [10]: 1.8 µM | TGI [10]: 3.73 µM | GI50 [1]: 2.83 µM | TGI [1]: 11.5 µM | GI50 [2]: 1440 nM | TGI [2]: 3.27 µM | GI50 [3]: 3050 nM | TGI [3]: 13.2 µM | GI50 [4]: 3.5 µM | TGI [4]: 24.9 µM | GI50 [5]: 2.37 µM | TGI [5]: 10.3 µM | GI50 [6]: 1700 nM | TGI [6]: 4.67 µM | GI50 [7]: 3.81 µM | TGI [7]: > 100 µM | GI50 [8]: 3.98 µM | TGI [8]: 15.9 µM | GI50 [9]: 2.09 µM | TGI [9]: 4.18 µM

CCCCNN
TGI [10]: > 100 µM | TGI [2]: > 100 µM | TGI [3]: > 100 µM | TGI [4]: > 100 µM | TGI [5]: > 100 µM | TGI [6]: > 100 µM | TGI [7]: > 100 µM

CN(C)N1C(=O)c2ccccc2NC1c1ccccc1 (stereo not given)
TGI [1]: > 100 µM | TGI [2]: > 100 µM | TGI [3]: > 100 µM | TGI [4]: > 100 µM | TGI [5]: > 100 µM | TGI [6]: > 100 µM | TGI [7]: > 100 µM | TGI [8]: > 100 µM | TGI [9]: > 100 µM

Cc1sc(C)c(Cc2c(C)sc(C)c2CCl)c1CCl
GI50 [10]: > 100 µM | TGI [10]: > 100 µM | GI50 [1]: > 100 µM | TGI [1]: > 100 µM | GI50 [2]: > 100000 nM | TGI [2]: > 100 µM | GI50 [3]: > 100000 nM | TGI [3]: > 100 µM | GI50 [4]: > 100 µM | TGI [4]: > 100 µM | GI50 [5]: > 100 µM | TGI [5]: > 100 µM | GI50 [7]: > 100 µM | TGI [7]: > 100 µM | GI50 [8]: > 100 µM | TGI [8]: > 100 µM | GI50 [9]: > 100 µM | TGI [9]: > 100 µM

NC(=O)N/N=C/C(/C=N/NC(N)=O)[N+](=O)[O-]
TGI [10]: > 100 µM | TGI [1]: > 100 µM | TGI [3]: > 100 µM | TGI [6]: > 100 µM | TGI [9]: > 100 µM

C1CCN(c2nsc(N3CCCCC3)n2)CC1
TGI [10]: > 100 µM | TGI [1]: > 100 µM | TGI [3]: > 100 µM | TGI [6]: > 100 µM | TGI [8]: > 100 µM | TGI [9]: > 100 µM

NC(=O)c1cc(Br)cc(C2CCCCC2)c1O
GI50 [10]: 6.44 µM | TGI [10]: 22 µM | GI50 [1]: 11.4 µM | TGI [1]: 25 µM | GI50 [2]: 15800 nM | TGI [2]: 30.8 µM | GI50 [3]: 6150 nM | TGI [3]: 20.3 µM | GI50 [4]: 11 µM | TGI [4]: 23.9 µM | GI50 [5]: 14.7 µM | TGI [5]: 28.8 µM | GI50 [6]: 11500 nM | TGI [6]: 23.9 µM | GI50 [8]: 15.6 µM | TGI [8]: 30.5 µM | GI50 [9]: 15.2 µM | TGI [9]: 30.2 µM

O=C(O)/C(=C/c1c(O)ccc2ccccc12)c1csc(-c2nc(/C(=C\c3c(O)ccc4ccccc34)C(=O)O)cs2)n1
TGI [10]: 14 µM | TGI [1]: 26.3 µM | TGI [6]: 23.3 µM | TGI [8]: 49.1 µM | TGI [9]: 19.1 µM

COc1ccc2c(c1OC)C1=C(C2=O)c2cc3c(cc2CCN1)OCO3
TGI [10]: > 100 µM | TGI [1]: > 100 µM | TGI [3]: 83 µM | TGI [6]: > 100 µM | TGI [8]: 92.7 µM | TGI [9]: 61.2 µM

O=C1C[C@@H]2C(COC(=O)c3ccccc3)N(OCc3ccccc3)C[C@@H]2O1 (stereo not given in full)
TGI [10]: > 100 µM | TGI [1]: > 100 µM | TGI [6]: > 100 µM | TGI [8]: > 100 µM | TGI [9]: > 100 µM

COc1cc2noc(-c3ccccc3)c2cc1OC
TGI [10]: 73.8 µM | TGI [1]: > 100 µM | TGI [3]: 92.2 µM | TGI [6]: > 100 µM | TGI [8]: > 100 µM | TGI [9]: > 100 µM

CCOC(=O)c1[nH]c(-c2ccc(Cl)cc2)cc1-c1cccnc1
GI50 [10]: 1.27 µM | TGI [10]: 7.23 µM | GI50 [1]: 2.36 µM | TGI [1]: > 100 µM | GI50 [2]: 453 nM | TGI [2]: > 100 µM | GI50 [4]: 0.511 µM | TGI [4]: > 100 µM | GI50 [5]: 0.279 µM | TGI [5]: 1.42 µM | GI50 [6]: 843 nM | TGI [6]: > 100 µM | GI50 [8]: 0.449 µM | TGI [8]: > 100 µM | GI50 [9]: 0.423 µM | TGI [9]: 7.14 µM
